Results from article PMC5412286, “Biosynthesis of α-Glucosidase Inhibitors by a Newly Isolated Bacterium, Paenibacillus sp. TKU042 and Its Effect on Reducing Plasma Glucose in a Mouse Model” (International Journal of Molecular Sciences, 2017).
Marks after values point to notes of the source that are not given here.

Tests used:
ICR mice = assay: diarrhea / ill effects in the sucrose tolerance test; details: FNB 100, 200 or 400 mg, acarbose 12.5 mg, FNB (100, 200 mg) with acarbose 12.5 mg
Method: A sucrose solution was orally administered at 3 g/kg bw and blood was sampled and measured after 0.5, 1, 1.5 and 2 h.

Rat α-glucosidase = assay: rat intestinal α-glucosidase inhibition assay; format: biochemical
Method: To determine rat intestinal α-glucosidase inhibition, the techniques from the previous report were followed, with modifications. One hundred mg of rat-intestinal acetone powder was suspended in 4 mL of 0.1 mol/L potassium phosphate buffer (NPB), pH 7. The suspension was sonicated several times for 12 s at 4 °C and then centrifuged for 20 min at 10,000× g. The residues were twice suspended with 3 mL of 0.1 mol/L NPB at pH 7, as described above. The resulting supernatant was mixed together and dialyzed for 12 h at 4–6 °C, and then used for the assay. The α-glucosidase, sample solutions and buffer were pre-mixed at volumes of 50, 50 and 100 μL, respectively. After pre-incubation at 37 °C for 20 min, the reaction started when 50 μL of p-nitrophenyl glucopyranoside (10 mmol/L) was added to the mixture. After 20 min at 37 °C, 100 μL Na2CO3 solution (1 mol/L) was added to terminate the reaction. The absorbance of the final mixture was measured at 410 nm and used to calculate inhibition (%) using the following equation: α-glucosidase inhibitory activity (%) = (A − B)/A × 100 where “A” is the absorbance of the control (buffer was used instead of sample with the same volume) and “B” is the absorbance of the final mixture containing the sample and α-glucosidase. The IC50 value was defined and determined as per the previous study. […]

[1] = biological target: T1, Saccharomyces cerevisiae α-glucosidase (Saccharomyces cerevisiae, UniProt P53341); assay: yeast α-glucosidase inhibition assay; format: biochemical; details: S. cerevisiae α-glucosidase
T1 construct: purchased Sigma Chemical Co., St. Louis, MO, USA
Method: SPP, SHP (shrimp head powder), and NB were used as the sole sources of C/N with concentrations of 1%, 1% and 0.8%, respectively. Fermentation conditions were set at 30 °C, shaking speed of 150 rpm, 100/250 mL for the medium/flask volume ratio, and 1 mL of bacterial seed solution (OD660nm = 0.38). The inhibition against yeast α-glucosidase was then tested and calculated in % (A) or U/mL (B); the growth of Paenibacillus sp. TKU042 was detected at OD660nm (C). […] Saccharomyces cerevisiae α-glucosidase was used to test aGI activity.
All of the isolated strains were incubated in a 250-mL Erlenmeyer flask with 50 mL of the same medium, but without agar. Fermentation was performed at 37 °C and a 150 rpm shaking speed. After 1–4 days of fermentation, the culture was centrifuged at 500 rpm for 10 min to remove the medium residue. The solution was then centrifuged again at 4000 rpm for 20 min to separate the cells from the culture supernatant. The supernatant was then used to test yeast α-glucosidase inhibitory activity. […] The screening of active bacteria was based on the inhibitory activity of the supernatant.
Three sources of C/N (1% SPP, 1% SHP, and 0.8% NB) were used to cultivate Paenibacillus sp. TKU042; conditions were set at 30 °C, a shaking speed of 150 rpm and a 100/250 mL medium/flask volume ratio for nine days. […]

[2] = DPPH radical scavenging activity assay
Method: One hundred and twenty microliters of each sample (at different concentrations) was mixed with 30 µL of a methanolic solution containing 0.75 mM DPPH radicals in the well of a plate with 96 wells. The mixture was kept in the dark for 30 min before absorbance at 517 nm was measured. Radical scavenging activity was calculated using the following formula: Antioxidant activity (%) = [(AB − AA)/AB] × 100 where AB and AA stand for absorption of the blank sample (t = 0 min) and absorption of the tested sample solution (t = 30 min), respectively. α-Tocopherol dissolved in MeOH was also analyzed as a control.

T1 sequence (P53341 whole entry): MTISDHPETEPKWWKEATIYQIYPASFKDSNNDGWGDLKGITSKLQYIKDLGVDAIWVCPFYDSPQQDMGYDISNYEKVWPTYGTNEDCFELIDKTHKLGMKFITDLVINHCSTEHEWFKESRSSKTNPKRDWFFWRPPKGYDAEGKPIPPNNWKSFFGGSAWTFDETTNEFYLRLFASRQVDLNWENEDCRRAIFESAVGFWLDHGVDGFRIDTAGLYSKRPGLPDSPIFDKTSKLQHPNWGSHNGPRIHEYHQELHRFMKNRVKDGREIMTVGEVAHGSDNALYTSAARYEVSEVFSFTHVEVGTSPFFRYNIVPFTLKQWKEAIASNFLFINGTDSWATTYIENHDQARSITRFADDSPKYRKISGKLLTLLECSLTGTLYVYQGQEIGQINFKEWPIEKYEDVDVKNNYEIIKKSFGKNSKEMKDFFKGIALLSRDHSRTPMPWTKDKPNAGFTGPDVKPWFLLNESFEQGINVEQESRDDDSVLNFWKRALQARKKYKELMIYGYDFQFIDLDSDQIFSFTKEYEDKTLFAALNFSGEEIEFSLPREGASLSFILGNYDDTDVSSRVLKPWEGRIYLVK

| antioxidant activity IC50 (DPPH radical scavenging) ([2]; DPPH, 30 min, 517 nm) [mg/mL] | Structure (SMILES) | ill effects (diarrhea), in words (ICR mice) | IC50 (Rat α-glucosidase) | Maximum Inhibitory Activity (Rat α-glucosidase) [%] | Maximum Inhibitory Activity [1] [%] | antioxidant activity achieved (DPPH) ([2]; maximum activity) |
| --- | --- | --- | --- | --- | --- | --- |
|  | C[C@H]1O[C@H](O[C@H]2[C@H](O)[C@@H](O)[C@@H](O[C@H]3[C@H](O)[C@@H](O)C(O)O[C@@H]3CO)O[C@@H]2CO)[C@H](O)[C@@H](O)[C@@H]1N[C@H]1C=C(CO)[C@@H](O)[C@H](O)[C@H]1O (stereo partly drawn) [acarbose] | No ill effects | 107 ± 2.5 ^c µg/mL | 89 ± 2.4 | 63 ± 2.5 |  |
| 0.0247 ± 0.0012 | Cc1c(C)c2c(c(C)c1O)CC[C@@](C)(CCC[C@H](C)CCC[C@H](C)CCCC(C)C)O2 [α-Tocopherol] |  |  |  |  | approximately 100% |
